The values that follow come from US20240269139A1, “COMPOUNDS FOR TARGETED PROTEIN DEGRADATION OF KINASES” (DANA-FARBER CANCER INSTITUTE, INC., priority 2020, published 2024).

Common to all, as to format: cell-based
Assay [1] deals with T1, protein kinases (human kinome) (Homo sapiens, UniProt Q16854).
T1 sequence (Q16854 40-277): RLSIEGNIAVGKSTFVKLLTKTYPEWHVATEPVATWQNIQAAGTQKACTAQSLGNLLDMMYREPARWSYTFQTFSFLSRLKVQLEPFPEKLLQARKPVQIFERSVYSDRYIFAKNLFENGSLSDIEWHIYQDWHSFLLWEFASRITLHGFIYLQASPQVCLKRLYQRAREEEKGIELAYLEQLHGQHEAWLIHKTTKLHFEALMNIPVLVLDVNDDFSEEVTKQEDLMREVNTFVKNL
The following applies: DGUOK (Q16854).

Assay [2] deals with protein kinases (human kinome) (Homo sapiens, UniProt P06239).
protein kinases (human kinome) (Homo sapiens, UniProt P06239), sequence (P06239 whole entry): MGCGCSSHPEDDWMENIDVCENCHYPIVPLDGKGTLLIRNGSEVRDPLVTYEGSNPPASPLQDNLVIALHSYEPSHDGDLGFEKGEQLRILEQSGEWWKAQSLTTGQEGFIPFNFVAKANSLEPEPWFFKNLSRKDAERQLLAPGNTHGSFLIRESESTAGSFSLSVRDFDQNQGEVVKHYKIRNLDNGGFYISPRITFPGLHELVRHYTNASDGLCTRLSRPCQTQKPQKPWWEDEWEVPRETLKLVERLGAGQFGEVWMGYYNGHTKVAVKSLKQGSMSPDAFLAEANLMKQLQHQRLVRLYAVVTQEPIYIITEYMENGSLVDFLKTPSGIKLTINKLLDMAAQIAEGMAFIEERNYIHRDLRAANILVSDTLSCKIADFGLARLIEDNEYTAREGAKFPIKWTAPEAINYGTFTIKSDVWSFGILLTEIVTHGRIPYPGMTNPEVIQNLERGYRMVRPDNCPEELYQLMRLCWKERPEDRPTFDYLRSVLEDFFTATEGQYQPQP
Assay [3] concerns the target protein kinases (human kinome) (Homo sapiens, UniProt P06241).
The target in assay [4] is protein kinases (human kinome) (Homo sapiens, UniProt P35790). The following applies: CHKA P35790.
protein kinases (human kinome) (Homo sapiens, UniProt P35790), sequence (P35790 whole entry): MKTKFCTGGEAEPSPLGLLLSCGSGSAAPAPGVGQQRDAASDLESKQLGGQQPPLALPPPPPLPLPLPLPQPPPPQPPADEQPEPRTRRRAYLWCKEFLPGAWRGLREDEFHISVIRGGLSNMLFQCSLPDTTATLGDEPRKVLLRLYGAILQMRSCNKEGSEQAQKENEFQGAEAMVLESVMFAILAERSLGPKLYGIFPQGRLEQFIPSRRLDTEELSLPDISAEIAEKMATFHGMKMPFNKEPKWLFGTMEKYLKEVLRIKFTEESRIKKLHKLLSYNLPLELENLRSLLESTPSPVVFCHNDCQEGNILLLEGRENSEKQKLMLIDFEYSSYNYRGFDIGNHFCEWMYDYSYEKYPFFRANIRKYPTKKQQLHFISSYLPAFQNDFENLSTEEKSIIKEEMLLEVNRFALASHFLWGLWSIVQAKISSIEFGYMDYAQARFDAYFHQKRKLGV
Assay [5] has as its target protein kinases (human kinome) (Homo sapiens, UniProt P21127).
Assay [6] concerns the target protein kinases (human kinome) (Homo sapiens, UniProt P06493). Particulars: CDK1 P06493.
For assay [7], the target named is protein kinases (human kinome) (Homo sapiens, UniProt Q15208). Particulars: for logFC: STK38 (Q15208).
protein kinases (human kinome) (Homo sapiens, UniProt Q15208), sequence (Q15208 whole entry): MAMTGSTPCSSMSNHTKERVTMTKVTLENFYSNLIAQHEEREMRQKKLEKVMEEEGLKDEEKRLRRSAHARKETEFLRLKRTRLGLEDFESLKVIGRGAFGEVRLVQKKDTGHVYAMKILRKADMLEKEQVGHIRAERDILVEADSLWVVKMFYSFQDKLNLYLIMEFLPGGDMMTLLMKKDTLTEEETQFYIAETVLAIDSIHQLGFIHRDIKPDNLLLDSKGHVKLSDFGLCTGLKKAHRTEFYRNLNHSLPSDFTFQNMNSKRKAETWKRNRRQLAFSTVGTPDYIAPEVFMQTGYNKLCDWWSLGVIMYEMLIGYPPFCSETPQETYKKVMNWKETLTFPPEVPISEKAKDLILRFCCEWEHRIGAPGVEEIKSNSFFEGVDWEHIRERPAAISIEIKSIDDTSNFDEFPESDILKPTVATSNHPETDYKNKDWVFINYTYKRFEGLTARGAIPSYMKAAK
Assay [8] has as its target T2, protein kinases (human kinome) (Homo sapiens, UniProt Q6PHR2).
T2 sequence (Q6PHR2 1-472): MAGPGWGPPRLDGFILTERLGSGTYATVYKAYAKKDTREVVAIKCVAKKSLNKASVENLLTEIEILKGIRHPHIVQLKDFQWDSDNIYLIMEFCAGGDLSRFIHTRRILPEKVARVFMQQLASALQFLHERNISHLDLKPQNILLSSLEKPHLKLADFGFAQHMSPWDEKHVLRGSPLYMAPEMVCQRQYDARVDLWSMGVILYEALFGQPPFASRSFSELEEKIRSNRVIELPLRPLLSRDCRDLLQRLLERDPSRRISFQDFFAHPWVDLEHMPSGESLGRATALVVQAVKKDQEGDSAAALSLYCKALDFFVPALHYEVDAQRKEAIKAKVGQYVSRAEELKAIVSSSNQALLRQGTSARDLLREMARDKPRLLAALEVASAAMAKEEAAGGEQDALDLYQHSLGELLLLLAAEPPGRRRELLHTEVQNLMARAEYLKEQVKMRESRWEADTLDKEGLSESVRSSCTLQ
The following applies: experiment wp137.

Assay [9] has as its target protein kinases (human kinome) (Homo sapiens, UniProt P49840). Particulars: GSK3A P49840; experiment wp146.
Setting [10] is: CDK11B P21127-1, experiment wp045.
[11] abbreviates: CDK11B P21127-1, experiment wp105.
The mark [12] stands for this setting: CDK11B P21127-1, experiment wp117.
Where [13] appears, read: CDK11B P21127-1, experiment wp160, 4 hr.
Setting [14] is: CDK11B P21127-1, experiment wp160, 8 hr.
Setting [15] is: CDK11B P21127-1, experiment wp172.

Read-outs that look alike come from different tables or passages of the source.

protein kinases (human kinome) (Homo sapiens, UniProt P49840), sequence (P49840 whole entry): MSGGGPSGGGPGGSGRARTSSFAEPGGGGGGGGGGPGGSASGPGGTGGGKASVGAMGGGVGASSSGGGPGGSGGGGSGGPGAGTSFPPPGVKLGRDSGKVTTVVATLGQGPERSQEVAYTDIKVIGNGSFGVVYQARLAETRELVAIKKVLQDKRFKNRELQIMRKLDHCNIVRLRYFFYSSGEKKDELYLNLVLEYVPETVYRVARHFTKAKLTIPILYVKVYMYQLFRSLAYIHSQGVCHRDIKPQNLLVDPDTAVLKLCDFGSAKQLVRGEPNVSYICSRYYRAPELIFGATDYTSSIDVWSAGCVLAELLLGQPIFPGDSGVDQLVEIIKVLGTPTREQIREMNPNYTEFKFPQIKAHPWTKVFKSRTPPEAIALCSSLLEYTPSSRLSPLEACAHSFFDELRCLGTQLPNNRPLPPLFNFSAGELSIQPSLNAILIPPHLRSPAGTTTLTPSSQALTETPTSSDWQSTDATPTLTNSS
protein kinases (human kinome) (Homo sapiens, UniProt P21127), sequence (P21127 whole entry): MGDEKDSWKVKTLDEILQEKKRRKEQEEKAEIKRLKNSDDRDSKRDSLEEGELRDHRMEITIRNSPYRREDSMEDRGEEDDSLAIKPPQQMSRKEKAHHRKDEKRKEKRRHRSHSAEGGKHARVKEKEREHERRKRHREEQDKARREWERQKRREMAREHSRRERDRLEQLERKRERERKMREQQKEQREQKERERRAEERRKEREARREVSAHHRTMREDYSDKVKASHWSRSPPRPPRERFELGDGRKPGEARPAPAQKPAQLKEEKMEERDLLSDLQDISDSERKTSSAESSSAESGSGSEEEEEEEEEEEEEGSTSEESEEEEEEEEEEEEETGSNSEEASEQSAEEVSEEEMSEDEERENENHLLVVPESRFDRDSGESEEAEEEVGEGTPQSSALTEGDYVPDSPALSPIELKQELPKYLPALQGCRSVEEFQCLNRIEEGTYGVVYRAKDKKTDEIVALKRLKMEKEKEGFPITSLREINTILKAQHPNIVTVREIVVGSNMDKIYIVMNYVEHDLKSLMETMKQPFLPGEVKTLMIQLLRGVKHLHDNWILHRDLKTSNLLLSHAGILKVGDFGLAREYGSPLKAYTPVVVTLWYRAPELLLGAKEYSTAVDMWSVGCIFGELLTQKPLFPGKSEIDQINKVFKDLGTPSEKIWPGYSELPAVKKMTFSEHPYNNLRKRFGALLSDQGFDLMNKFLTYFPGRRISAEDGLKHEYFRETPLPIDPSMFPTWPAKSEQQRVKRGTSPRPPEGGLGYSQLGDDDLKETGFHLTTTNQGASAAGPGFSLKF
protein kinases (human kinome) (Homo sapiens, UniProt P06493), sequence (P06493 whole entry): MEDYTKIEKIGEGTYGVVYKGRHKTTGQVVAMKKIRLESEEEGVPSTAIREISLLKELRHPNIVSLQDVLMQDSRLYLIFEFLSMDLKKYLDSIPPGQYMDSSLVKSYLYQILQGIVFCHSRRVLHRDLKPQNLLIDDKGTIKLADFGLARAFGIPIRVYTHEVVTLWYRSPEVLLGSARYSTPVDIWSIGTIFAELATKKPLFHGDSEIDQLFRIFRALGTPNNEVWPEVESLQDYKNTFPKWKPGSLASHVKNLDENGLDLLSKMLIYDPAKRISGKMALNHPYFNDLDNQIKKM
protein kinases (human kinome) (Homo sapiens, UniProt P06241), sequence (P06241 whole entry): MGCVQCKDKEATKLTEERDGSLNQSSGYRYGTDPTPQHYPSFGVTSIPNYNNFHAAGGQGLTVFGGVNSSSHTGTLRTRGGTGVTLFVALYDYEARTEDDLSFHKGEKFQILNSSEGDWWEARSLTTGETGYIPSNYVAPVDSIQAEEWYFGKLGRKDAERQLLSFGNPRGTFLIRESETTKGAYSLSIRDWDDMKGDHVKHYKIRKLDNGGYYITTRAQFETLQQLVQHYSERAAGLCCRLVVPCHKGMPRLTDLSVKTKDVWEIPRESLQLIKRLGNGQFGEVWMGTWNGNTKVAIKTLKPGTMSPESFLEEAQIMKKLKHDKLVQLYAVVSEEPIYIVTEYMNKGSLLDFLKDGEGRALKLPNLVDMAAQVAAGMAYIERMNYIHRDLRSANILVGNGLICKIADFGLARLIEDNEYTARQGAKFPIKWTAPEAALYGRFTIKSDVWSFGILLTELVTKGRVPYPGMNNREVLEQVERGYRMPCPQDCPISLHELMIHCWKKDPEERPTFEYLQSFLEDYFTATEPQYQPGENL

Take `CC(=O)c1c(C)c2cnc(Nc3ccc(N4CCN(CCOCCOCCOCCNC(=O)COc5cccc6c5C(=O)N(C5CCC(=O)NC5=O)C6=O)CC4)cn3)nc2n(C2CCCC2)c1=O` (stereo not shown) [BSJ.03.123]: the logFC in [1] (experiment wp084) was −0.4377.
`CN(C)C(=O)c1cc2cnc(Nc3ccc(N4CCN(CCCCNC(=O)COc5cccc6c5C(=O)N(C5CCC(=O)NC5=O)C6=O)CC4)cn3)nc2n1C1CCCC1` (stereo not shown) [BSJ.04.132] had a logFC in assay [1] (experiment wp084) of −0.5254.
For `Cc1ccc(NC(=O)c2cccc(C(F)(F)F)c2)cc1N1Cc2cnc(Nc3ccc(N4CCN(Cc5cn(CCCCCOc6cccc7c6C(=O)N(C6CCC(=O)NC6=O)C7=O)nn5)CC4)nc3)nc2N(C)C1=O` (stereo not shown) [DB0646, N-(3-(7-((6-(4-((1-(5-((2-(2,6-Dioxopiperidin-3-yl)-1,3-dioxoisoindolin-4-yl)oxy)pentyl)-1H-1,2,3-triazol-4-yl)methyl)piperazin-1-v)pyridin-3-yl)amino)-1-methyl-2-oxo-1,4-dihydropyrimido[4,5-d]pyrimidin-3(2H)-yl)-4-methylphenyl)-3-(trifluoromethyl)benzamide], the “logFC LCK” value was −0.4575 in assay [2] (LCK P06239-1, experiment wp160, 4 hr); −0.5386 in assay [2] (LCK P06239-1, experiment wp160, 8 hr); −0.4575 in assay [2] (LCK, accession P06239-1, experiment wp160, 4 hr, direction of change down); −0.5386 in [2] (LCK, accession P06239-1, experiment wp160, 8 hr, direction of change down); −0.4468 in assay [2] (LCK, accession P06239, experiment wp152, direction of change down). Moreover, in assay [2] (experiment wp152), the “logFC of LCK (P06239)” value is recorded as −0.4468. Also, the “logFC FYN” value is on record as −0.4621 in assay [3] (Accession P06241-1, experiment wp105) and −0.3685 in assay [3] (Accession P06241, experiment wp152). In addition, the “logFC FYN (P06241)” value in assay [3] (Experiment wp152, direction of change down) is recorded as −0.3685. Moreover, the logFC is given as −0.4621 in [3] (FYN (P06241-1), experiment wp105, direction down); −0.3979 in [4] (experiment wp152); −0.4303 in assay [4] (experiment wp160, 8 hr); −0.4555 in assay [5] (setting [10]); −0.3542 in [5] (setting [11]); −0.4695 in assay [5] (setting [12]). In addition, the logFC in [5] (setting [13]) is −0.5122; in [5] (setting [14]) it was −0.644; in assay [5] (setting [15]), −0.4624; in [5] (CDK11B P21127, experiment wp152) it was −0.5948. Further, the “logFC CDK11B” value in [5] (setting [10]) is −0.4555; in assay [5] (setting [11]), −0.3542; in assay [5] (setting [12]), −0.4695; in assay [5] (setting [13]) it was −0.5122; in assay [5] (setting [14]), −0.644; in assay [5] (setting [15]) it was −0.4624. For the same compound, the “logFC of CDK11B (P21127)” value in [5] (experiment wp152) is on record as −0.5948.
For the compound `CC(C)(C)c1nc(-c2cccc(NS(=O)(=O)c3c(F)cccc3F)c2F)c(-c2ccnc(NCCOCCNC(=O)CCOCCOCCNc3cccc4c3C(=O)N(C3CCC(=O)NC3=O)C4=O)n2)s1` (stereo not shown) [DD.03.106], the logFC in [1] (experiment wp147, 4 uM) is recorded as −0.5418; in [6] (experiment wp147, 2 uM), −0.5015; in assay [6] (experiment wp147, 4 uM), −0.5416. Also, the “logFC CDK1” value in assay [6] (experiment wp147, 2 uM) is reported as −0.5015; in [6] (experiment wp147, 4 uM), −0.5416.
Turning to `CC(C)(C)c1nc(-c2cccc(NS(=O)(=O)c3c(F)cccc3F)c2F)c(-c2ccnc(NCCOCCNC(=O)CCOCCOCCNc3cccc4c3CN(C3CCC(=O)NC3=O)C4=O)n2)s1` (stereo not shown) [DD.03.107], the logFC is −0.5245 in assay [1] (experiment wp147, 1 uM) and −0.9678 in assay [1] (experiment wp147, 4 uM).
`CC(C)S(=O)(=O)c1ccccc1Nc1nc(Nc2ccc(N3CCN(CCOCCOCCC(=O)NCCNc4cccc5c4CN(C4CCC(=O)NC4=O)C5=O)CC3)cc2)ncc1Cl` (stereo not shown) [TL13.97]: in [7] (experiment wp137), the logFC was −0.3912 and the “logFC of STK38 (Q15208)” value is given as −0.3912. Moreover, the “logFC ULK3” value in assay [8] (ULK3 (Q6PHR2-1)) is reported as −0.3729. In [8], the “logFC ULK3 (Q6PHR2-1)” value is −0.3729.
With `NC(=O)c1c(F)cccc1Nc1nc(Nc2ccc(S(=O)(=O)NCCOCCOCCOCCOCCNc3cccc4c3C(=O)N(C3CCC(=O)NC3=O)C4=O)cc2)ncc1Br` (stereo not shown) [TMX.02.138], in [9], the logFC is listed as −0.8225 and the “logFC GSK3A” value is −0.8225. Also, in [6] (experiment wp146), the logFC is −1.641 and the “logFC CDK1” value is −1.641. Also, in assay [7] (experiment wp146), the logFC is listed as −0.3476 and the “logFC of STK38 (Q15208)” value is reported as −0.3476.
Consider `Cc1cc(Nc2ncc(Br)c(Nc3cccc(F)c3C(N)=O)n2)ccc1S(=O)(=O)NCCOCCOCCOCCOCCNc1cccc2c1C(=O)N(C1CCC(=O)NC1=O)C2=O` (stereo not shown) [TMX.02.174], for which, in assay [9], the logFC is reported as −0.7133 and the “logFC GSK3A” value is −0.7133. In assay [6] (experiment wp146), the logFC is −1.629 and the “logFC CDK1” value is listed as −1.629. In addition, in assay [7] (experiment wp146), the logFC is recorded as −0.4117 and the “logFC of STK38 (Q15208)” value is on record as −0.4117.
For `C=CCn1c(=O)c2cnc(Nc3ccc(N4CCN(CCCNc5cccc6c5C(=O)N(C5CCC(=O)NC5=O)C6=O)CC4)cc3)nc2n1-c1cccc(C(C)(C)O)n1` (stereo not shown) [ZNL.02.096], in assay [1] (experiment wp118), the logFC is listed as −0.5337.
